From US8852928B2, “LexA-based chemical-inducible gene expression system for use in transgenic animals” (Temasek Life Sciences Laboratory Limited, priority 2007, dated 2014)

Molecular target: T1, LexPR transactivator (Homo sapiens, UniProt P06401)
T1 construct: expressed in transfected cells; host or cells: germline-transgenic zebrafish (Danio rerio) carrying the Ds transposon driver cassette pDs(krt8:LPR-LOP:G4) or derivatives
T1 sequence (P06401 640-914): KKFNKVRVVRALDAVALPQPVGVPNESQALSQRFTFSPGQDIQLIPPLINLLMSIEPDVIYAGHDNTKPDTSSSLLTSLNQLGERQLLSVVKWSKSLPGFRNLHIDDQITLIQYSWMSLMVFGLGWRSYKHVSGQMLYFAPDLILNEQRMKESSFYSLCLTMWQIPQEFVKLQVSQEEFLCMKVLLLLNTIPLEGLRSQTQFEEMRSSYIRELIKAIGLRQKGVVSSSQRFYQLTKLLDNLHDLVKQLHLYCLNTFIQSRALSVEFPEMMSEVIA
Experiment: Time required to switch off EGFP reporter expression after mifepristone withdrawal
Type: in vivo, zebrafish
Parameters: key to Reporter expression, RU486 incubation / Reporter expression after RU486 withdrawal / Reporter expression, continuous induction (time of RU486 incubation): +: Fluorescence signal is similar to the control.; ±: Fluorescence signal is obviously weaker that in control.; −: No EGFP fluorescence (except autofluorescence)observed using the fluorescent stereomicroscope
Excerpt: To avoid confusion, the corresponding developmental times are indicated. A Nikon SMZ1600 fluorescent stereomicroscope was used for rough estimation of the EGFP fluorescence.

Reporter expression, RU486 incubation (1 nM, 1 hour RU486 incubation - withdrawal, at 1 h incubation, 37hpf): −
Reporter expression after RU486 withdrawal (1 nM, 1 hour RU486 incubation, 12 h after withdrawal, 49hpf): −
Reporter expression after RU486 withdrawal (1 nM, 1 hour RU486 incubation, 24 h after withdrawal, 61hpf): −
Reporter expression after RU486 withdrawal (1 nM, 1 hour RU486 incubation, 48 h after withdrawal, 85hpf): −
Reporter expression after RU486 withdrawal (1 nM, 1 hour RU486 incubation, 72 h after withdrawal, 109hpf): −
Reporter expression after RU486 withdrawal (1 nM, 1 hour RU486 incubation, 96 h after withdrawal, 133hpf): −
Reporter expression after RU486 withdrawal (1 nM, 1 hour RU486 incubation, 120 h after withdrawal, 157hpf): −
Reporter expression after RU486 withdrawal (1 nM, 1 hour RU486 incubation, 144 h after withdrawal, 181hpf): −
Reporter expression, RU486 incubation (1 nM, 12 hours RU486 incubation - withdrawal, at 12 h incubation, 48hpf): −
Reporter expression after RU486 withdrawal (1 nM, 12 hours RU486 incubation, 12 h after withdrawal, 60hpf): ±
Reporter expression after RU486 withdrawal (1 nM, 12 hours RU486 incubation, 24 h after withdrawal, 72hpf): −
Reporter expression after RU486 withdrawal (1 nM, 12 hours RU486 incubation, 48 h after withdrawal, 96hpf): −
Reporter expression after RU486 withdrawal (1 nM, 12 hours RU486 incubation, 72 h after withdrawal, 120hpf): −
Reporter expression after RU486 withdrawal (1 nM, 12 hours RU486 incubation, 96 h after withdrawal, 144hpf): −
Reporter expression after RU486 withdrawal (1 nM, 12 hours RU486 incubation, 120 h after withdrawal, 168hpf): −
Reporter expression after RU486 withdrawal (1 nM, 12 hours RU486 incubation, 144 h after withdrawal, 192hpf): −
Minimal time after RU486 withdrawal to turn off the reporter expression (1 nM, 12 hours induction): 1 days
Reporter expression, continuous induction (time of RU486 incubation) (1 nM, 24-156 h incubation, 60-192 hpf): ±
Reporter expression, continuous induction (time of RU486 incubation) (1 nM, 1 h incubation): −
Reporter expression, continuous induction (time of RU486 incubation) (1 nM, 12 h incubation): −
Reporter expression, continuous induction (time of RU486 incubation) (1 nM, 13 h incubation, 49hpf): −
Reporter expression, continuous induction (time of RU486 incubation) (1 nM, 24 h incubation, 60hpf): ±
Reporter expression, RU486 incubation (10 nM, 1 hour RU486 incubation - withdrawal, at 1 h incubation, 37hpf): −
Reporter expression after RU486 withdrawal (10 nM, 1 hour RU486 incubation, 12 h after withdrawal, 49hpf): ±
Reporter expression after RU486 withdrawal (10 nM, 1 hour RU486 incubation, 24 h after withdrawal, 61hpf): −
Reporter expression after RU486 withdrawal (10 nM, 1 hour RU486 incubation, 48 h after withdrawal, 85hpf): −
Reporter expression after RU486 withdrawal (10 nM, 1 hour RU486 incubation, 72 h after withdrawal, 109hpf): −
Reporter expression after RU486 withdrawal (10 nM, 1 hour RU486 incubation, 96 h after withdrawal, 133hpf): −
Reporter expression after RU486 withdrawal (10 nM, 1 hour RU486 incubation, 120 h after withdrawal, 157hpf): −
Reporter expression after RU486 withdrawal (10 nM, 1 hour RU486 incubation, 144 h after withdrawal, 181hpf): −
Minimal time after RU486 withdrawal to turn off the reporter expression (10 nM, 1 hour induction): 1 days
Reporter expression, RU486 incubation (10 nM, 12 hours RU486 incubation - withdrawal, at 12 h incubation, 48hpf): ±
Reporter expression after RU486 withdrawal (10 nM, 12 hours RU486 incubation, 12 h after withdrawal, 60hpf): +
Reporter expression after RU486 withdrawal (10 nM, 12 hours RU486 incubation, 24 h after withdrawal, 72hpf): ±
Reporter expression after RU486 withdrawal (10 nM, 12 hours RU486 incubation, 48 h after withdrawal, 96hpf): −
Reporter expression after RU486 withdrawal (10 nM, 12 hours RU486 incubation, 72 h after withdrawal, 120hpf): −
Reporter expression after RU486 withdrawal (10 nM, 12 hours RU486 incubation, 96 h after withdrawal, 144hpf): −
Reporter expression after RU486 withdrawal (10 nM, 12 hours RU486 incubation, 120 h after withdrawal, 168hpf): −
Reporter expression after RU486 withdrawal (10 nM, 12 hours RU486 incubation, 144 h after withdrawal, 192hpf): −
Minimal time after RU486 withdrawal to turn off the reporter expression (10 nM, 12 hours induction): 2 days
Reporter expression, continuous induction (time of RU486 incubation) (10 nM, 24-156 h incubation, 60-192 hpf): +
Reporter expression, continuous induction (time of RU486 incubation) (10 nM, 1 h incubation): −
Reporter expression, continuous induction (time of RU486 incubation) (10 nM, 12 h incubation): ±
Reporter expression, continuous induction (time of RU486 incubation) (10 nM, 13 h incubation, 49hpf): ±
Reporter expression, continuous induction (time of RU486 incubation) (10 nM, 24 h incubation, 60hpf): +
Reporter expression, RU486 incubation (100 nM, 1 hour RU486 incubation - withdrawal, at 1 h incubation, 37hpf): −
Reporter expression after RU486 withdrawal (100 nM, 1 hour RU486 incubation, 12 h after withdrawal, 49hpf): +
Reporter expression after RU486 withdrawal (100 nM, 1 hour RU486 incubation, 24 h after withdrawal, 61hpf): +
Reporter expression after RU486 withdrawal (100 nM, 1 hour RU486 incubation, 48 h after withdrawal, 85hpf): −
Reporter expression after RU486 withdrawal (100 nM, 1 hour RU486 incubation, 72 h after withdrawal, 109hpf): −
Compound: CC#C[C@]1(O)CC[C@H]2[C@@H]3CCC4=CC(=O)CCC4=C3[C@@H](c3ccc(N(C)C)cc3)C[C@@]21C [mifepristone]
